Data on 2 compounds can be found in patent US20060094068A1, “Predictive markers in cancer therapy” (priority 2002, published 2006).

“Also recorded” adds a separate entry of the source.

For assay [1], the system named is AKT. The assay can be described thus: AKT activation in HN5 cells (Western blot). The assay is classed as cell-based, human. The following applies: 5 μM, 24 h. In general terms: Immunoblotting shows a protein as a band on a membrane.
The subject of assay [2] is HN5 cells. To be noted: cited from earlier work.
Assay [3] has as its system AKT. The assay can be described thus: AKT activation in BT474 cells (Western blot). It counts as cell-based, human. The following applies: 1 μM, 24 h, with or without EGF.
The subject of assay [4] is Erk1/2. Description: p-Erk1/2 in Hb4a cells (Western blot). It counts as cell-based, human. To be noted: 72 h, GW572016 5 μM, Herceptin 10 μg/ml.
For assay [5], the system named is S1 cells. Description: Cell cycle analysis / apoptosis in S1 cells (propidium iodide flow cytometry). To be noted: 5 μM, 72 h. On the technique in general: In flow cytometry, cells or beads pass a laser one at a time.
Description: Cells were harvested and fixed with 70% ethanol in PBS. Cell pellets were then resuspended in 0.5 ml PBS containing propidium iodide (50 μg/ml) and DNase-free RNase (100 μg/ml). Cell cycle analysis was performed using a BD Flow Cytometer (Becton Dickinson, San Jose, Calif., USA).
After 72 h, cell cycle analysis was performed using propidium iodide staining and flow cytometry as described in Materials and methods.
For assay [6], the target named is T1, erbB2 (Homo sapiens, UniProt P04626). The assay can be described thus: Quantitative IHC of erbB2 in HN5 and BT474 xenografts. The assay is classed as in vivo, mice. The following applies: 200 mg/kg oral once daily.
Assay [7] deals with Erk1/2. The assay can be described thus: Quantitative IHC of Erk1/2 in tumor xenografts. It counts as in vivo, mice. The source says:
DAB (Dako) was used as the chromogen.
Inhibition of erbB2/EGFR p-tyr in turn led to the inhibition of downstream activated, phospho-Erk1/2.

For assay [8], the system named is AKT. Description: AKT phosphorylation in S1 cells. The assay is classed as cell-based, human.
Assay [9] concerns the target T1, erbB2. The assay can be described thus: Clinical trial, erbB2 p-tyr and total erbB2 in tumor biopsies (IHC). The following applies: patient 361, 1200 mg/day.
The subject of assay [10] is HN5 cells. The assay can be described thus: Apoptosis and growth arrest in HN5 cells. The assay is classed as cell-based, human.
Assay [11] concerns cyclin D1. The assay can be described thus: Clinical trial, cyclin D1 in sequential tumor biopsies (quantitative IHC).
The subject of assay [12] is Erk1/2. The assay can be described thus: Clinical trial, localisation of total Erk1/2 in tumor biopsies (IHC). To be noted: patient 361, day 21; before treatment nuclear.
Excerpt: Erk1/2 (1:1200), erbB3 (1:10), heregulin (1:25), and TGFα (1:20) were also immunostained using the BenchMark™ with I-VIEW detection chemistry.
Assay [13] relates to Hb4a cells. The assay can be described thus: Hb4a cell growth, viable cell count by trypan blue exclusion. To be noted: GW572016 2.5 μM + EGF 50 ng/ml, 72 h. It counts as cell-based, human. Here is the method:
Exponentially growing Hb4a cells were cultured in 35 mm petri dishes with serum-free medium containing 1.5% BSA. […] Viable cells were counted after 72 h using trypan blue exclusion.

For assay [14], the system named is p-AKT. The assay can be described thus: Clinical trial, p-AKT in sequential tumor biopsies (quantitative IHC). The following applies: patient 361, after 21 days of treatment.
For assay [15], the system named is Erk1/2. Description: p-Erk1/2 in HN5 tumor xenografts (Western blot). The assay is classed as in vivo, CD-1 nude mice. Here is the method:
(§1) HN5 cells were grown in DMEM supplemented with 10% fetal bovine serum, sodium pyruvate and L-glutamine at 37° C. in a 95/5% air/CO2 atmosphere. […] Cells (2×10^6/mouse) in 0.2 ml were injected into the right flank of CD-1 nude mice. Female CD-1 nude mice were acquired from Charles River Laboratories. Mice were maintained in filter-topped cages in an aseptic environment with laminar flow filtered ventilation. […] Tumors were biopsied pre-treatment and 4 hours after the last dose. All animal surgery was conducted under aseptic conditions. For the initial biopsy, mice were anesthetized with isofluorane inhalation. The skin over the tumor was disinfected with iodine. A small hemostat was used to tease away the skin from the tumor, and scissors were used to make a 1 cm incision over the tumor. A scalpel and forceps were used to remove approximately 100 mg of tumor. The tumor was then frozen in liquid nitrogen. Wound clips were used to close the incision. The anesthetized mice were kept warm until they recovered mobility, usually less than 1-2 minutes. For the terminal biopsy, mice were euthanized with CO2 inhalation, and the remainder of the tumor excised. HN5 tumors were placed on dry ice in vials containing cold isopentane, nd stored at −80° C. prior to study. […]

Assay [16] deals with p-Erk1/2. Description: Clinical trial, p-ERK index in sequential tumor biopsies (quantitative IHC). The following applies: patient 361, day 21.
For assay [17], the system named is solid tumors. Description: Clinical trial, clinical response (RECIST re-staging at eight weeks). The following applies: for Clinical response at 8 weeks: 1200 mg/d.
Assay [18] relates to AKT. The assay can be described thus: p-AKT in HN5 tumor xenografts (Western blot). It counts as in vivo, CD-1 nude mice. The method, then:
as §1

In assay [19] the target is T1, erbB2. The assay can be described thus: EGF stimulation experiment, p-Tyr/erbB2 in BT474 cells. To be noted: 1 μM, 24 h, serum-free, with or without EGF 50 ng/ml.
Assay [20] concerns Erk1/2. The assay can be described thus: Erk1/2 activation in BT474 cells (Western blot). It counts as cell-based, human.
Assay [21] deals with Erk1/2. The assay can be described thus: Erk1/2 activation in HN5 cells (Western blot). The assay is classed as cell-based, human.
For assay [22], the system named is ERK MAP kinases and PKB/Akt. To be noted: SKOV (human ovarian cancer) cells, preincubation; cited from earlier work.
The test system of assay [23] is activated MAPK and Ki-67. To be noted: humans, phase I trials, normal skin biopsies before and after administration; cited from earlier work.
Where [24] appears, read: 72 h, GW572016 500 nM or 1 μM, Herceptin 10 μg/ml.

T1 sequence (P04626 23-1255): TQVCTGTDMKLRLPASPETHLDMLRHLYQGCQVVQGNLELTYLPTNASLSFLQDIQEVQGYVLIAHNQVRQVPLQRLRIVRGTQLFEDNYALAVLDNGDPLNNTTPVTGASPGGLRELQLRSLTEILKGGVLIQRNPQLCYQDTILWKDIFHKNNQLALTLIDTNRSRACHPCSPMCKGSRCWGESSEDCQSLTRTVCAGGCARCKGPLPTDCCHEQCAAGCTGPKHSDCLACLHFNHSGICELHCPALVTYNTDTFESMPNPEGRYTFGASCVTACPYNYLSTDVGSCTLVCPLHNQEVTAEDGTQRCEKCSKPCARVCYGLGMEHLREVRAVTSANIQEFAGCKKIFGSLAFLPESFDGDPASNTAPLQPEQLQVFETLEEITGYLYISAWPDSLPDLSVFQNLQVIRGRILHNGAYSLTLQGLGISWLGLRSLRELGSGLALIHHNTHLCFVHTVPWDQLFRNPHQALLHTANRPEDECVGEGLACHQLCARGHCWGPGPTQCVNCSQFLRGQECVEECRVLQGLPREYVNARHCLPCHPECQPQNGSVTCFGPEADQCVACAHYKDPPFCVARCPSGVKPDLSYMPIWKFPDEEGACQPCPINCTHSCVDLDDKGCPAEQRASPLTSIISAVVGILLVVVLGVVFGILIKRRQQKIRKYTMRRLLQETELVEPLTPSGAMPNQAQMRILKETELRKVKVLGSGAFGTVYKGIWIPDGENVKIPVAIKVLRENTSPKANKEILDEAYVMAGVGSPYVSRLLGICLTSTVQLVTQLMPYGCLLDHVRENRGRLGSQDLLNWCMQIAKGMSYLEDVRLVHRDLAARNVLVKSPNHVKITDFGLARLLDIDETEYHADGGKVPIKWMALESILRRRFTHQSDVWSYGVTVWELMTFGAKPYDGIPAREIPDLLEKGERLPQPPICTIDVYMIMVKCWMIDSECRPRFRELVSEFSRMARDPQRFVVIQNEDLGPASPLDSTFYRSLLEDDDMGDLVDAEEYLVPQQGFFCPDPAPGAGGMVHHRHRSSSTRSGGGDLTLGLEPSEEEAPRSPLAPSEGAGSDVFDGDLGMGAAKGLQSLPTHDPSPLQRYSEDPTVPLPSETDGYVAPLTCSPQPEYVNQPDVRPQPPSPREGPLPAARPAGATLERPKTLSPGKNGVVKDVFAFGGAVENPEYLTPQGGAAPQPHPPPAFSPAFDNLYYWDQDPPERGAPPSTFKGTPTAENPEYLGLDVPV

For the compound `CS(=O)(=O)CCNCc1ccc(-c2ccc3ncnc(Nc4ccc(OCc5cccc(F)c5)c(Cl)c4)c3c2)o1` [GW572016, N-{3-Chloro-4-[(3-fluorobenzyl)oxy]phenyl}-6-[5-({[2-(methylsulfonyl)ethyl]amino}methyl)-2-furyl]4-quinazolinamine], the p-AKT entry in assay [1] is “inhibits baseline phosphorylation of AKT”; in assay [18] (10 mg/kg) it was “little effect”; in assay [18] (30 mg/kg/dose) it was “inhibited p-Erk1/2 and p-AKT”. For the same compound, the “Apoptosis (Rusnak et al.)” value in assay [2] is recorded as “increased only slightly”. Also, the “p-AKT (Ser 473)” value in assay [3] is reported as “completely inhibited p-AKT”. Further, in [4], the “Baseline p-Erk” value was “reduced the baseline amount of p-Tyr/erbB2 and p-Erk, effects not reversed by EGF; also recorded: decreased”. The “Increase in percentage of apoptotic cells vs vehicle controls” value in [5] came out at 23 fold. Further, the “Activated erbB2 (IHC)” value in assay [6] was “inhibition of activated EGFR and erbB2 in a dose-dependent manner”. In addition, the “erbB2 total protein (IHC)” value in [6] is “neither EGFR nor erbB2 total protein was affected”. Moreover, the “Total Erk1/2 protein (IHC)” value in [7] is recorded as “unaffected”. The “p-Erk1/2 levels (IHC)” value in assay [7] is recorded as “reduced”. Moreover, the “Baseline phosphorylation of AKT” value in assay [8] was “inhibits baseline phosphorylation of AKT”. Also, the “Total erbB2 protein” value in assay [9] is “had no effect”. The erbB2 p-tyr result in assay [9] (day 21) is on record as “did not inhibit”. In assay [10], the Growth arrest result is given as “growth arrest was seen”. Further, the “Inhibition of expressed cyclin D1 protein” value in assay [11] (patient 361, day 21) was found to be 90%. Besides, the “Decrease in cyclin D1” value in [11] (patient 372, day 21) came out at 80%. For the same compound, the “Localisation of total Erk1/2 protein” value in assay [12] was “almost entirely cytoplasmic”. Also, the “Growth inhibition with concurrent EGF” value in assay [13] is recorded as “did not reverse”. In [14], the “Inhibition of p-AKT” value is recorded as 33%. Further, the p-Erk1/2 entry in [15] (10 mg/kg) was “little effect”; in [15] (30 mg/kg/dose), “inhibited p-Erk1/2 and p-AKT”. Besides, in assay [16], the “Activated Erk1/2 in re-biopsy of metastatic subcutaneous nodule” value is listed as “completely inhibited; also recorded: completely inactivated”. In addition, the “Clinical response at 8 weeks” value in [17] (patient 361, breast) is listed as “partial responses”; in assay [17] (patient 372, breast), “partial responses”. Further, the “Sequentially biopsied metastatic lymph node” value in assay [17] (patient 364, 1600 mg/day, at day 21 biopsy) was “had reduced in size”. The “Stable Disease at eight weeks” value in assay [17] (patients with >70% decrease in pERK index) is on record as “Stable Disease: 3/5”. In assay [19], the “Baseline levels of p-Tyr/erbB2” value is given as “inhibited baseline levels of p-Tyr/erbB2, an effect not reversed by EGF”. The “EGF stimulation of p-Erk1/2” value in assay [20] (1 μM, 24 h, EGF 50 ng/ml) is reported as “inhibited EGF stimulation of p-Erk1/2”. In addition, the “p-Erk1/2 levels compared with untreated controls” value in assay [20] (setting [24]) and in assay [21] (setting [24]) was “inhibited p-Erk1/2” in each case. Further, the “Downstream p-Erk1/2” value in assay [21] (5 μM, 24 h) is on record as “inhibited downstream p-Erk1/2”.

`COc1cc2ncnc(Nc3ccc(F)c(Cl)c3)c2cc1OCCCN1CCOCC1` [ZD1839]: the “EGF-induced increases in activation of ERK MAP kinases and PKB/Akt” value in assay [22] is “block EGF-induced increases in activation of ERK MAP kinases and PKB/Akt”. In [23], the “Expression of activated MAPK and Ki-67 in keratinocytes” value is “decreased expression of both activated MAPK and Ki-67”.
